The subject of series [1] is siRNA-mediated mRNA degradation. The conditions noted are these: cited from earlier work.
In another series the test system is INF-β, OAS1 and STAT1. In words: Interferon assay (quantitative RT-PCR of IFN-responsive genes in splenocytes). The series is classed as cell-based, mouse. Here is the method:
Spleenocytes (1×10^6 cells/ml) were mock treated or treated with β7 It-sNP and luciferase-siRNA (1000 pmol) or 5 μg/ml poly (I:C). After 48 h RNA was isolated and analyzed by quantitative RT-PCR for induction of IFN or interferon responsive genes as described below.
Total RNA (1 μg) isolated using RNeasy RNA isolation kit (Qiagen) or for tissues, RNAlater RNA stabilization reagent was used followed by RNeasy fibrous tissue mini kit (Qiagen) and reverse transcribed using Superscript III (Invitrogen) and random hexamers, according to the manufacturer's protocol. […] SYBR green (Molecular Probes) was used to detect PCR products. All reactions were done in a 25 μl reaction volume in triplicate. Primers for mouse GAPDH, STAT1, OAS1 and INF β were previously described (Song et al., 2005). The following primer pairs have been used: IL-12p40: Forward: 5′-[…]-3′ (SEQ ID NO:9); Reverse: 5′-[…]-3′ (SEQ ID NO:10); TNF α: Forward 5′-[…]-3′ (SEQ ID NO:11), Reverse 5′-[…]-3′ (SEQ ID NO:12); Cyclin D1: Forward 5′-CTTCCTCTCCAAAATGCCAG-3′ (SEQ ID NO:13), Reverse 5′-AGAGATGGAAGGGGGAAAGA-3′ (SEQ ID NO:14). PCR parameters consisted of 5 min of Taq activation at 95° C., followed by 40 cycles of PCR at 95° C.×20 sec, 60° C.×30 sec, and 69° C.×20 sec. Standard curves were generated and the relative amount of target gene mRNA was normalized to GAPDH mRNA. […]

Take `CCn1cc(C(=O)O)c(=O)c2cc(F)c(N3CCNCC3)nc21` [Enoxacin]: the “enhancement of siRNA-mediated mRNA degradation” value in series [1] (with siRNA) is recorded as “enhances siRNA-mediated degradation”. For the same compound, the “effect in mRNA degradation by itself” value in series [1] (without siRNA) was “essentially no effect”.

poly (I:C): in the series with INF-β, OAS1 and STAT1, the “induction of interferon-responsive genes (IRG: INF-β, OAS1, STAT1 mRNA)” value is recorded as “induced”.

The record behind these values is patent US20110177155A1, “METHODS OF DELIVERY OF AGENTS TO LEUKOCYTES AND ENDOTHELIAL CELLS” (IMMUNE DISEASE INSTITUTE, INC., priority 2007, published 2011).
